This is an account of results in patent US20200038399A1, “FORMULATIONS, METHODS, KIT, AND DOSAGE FORMS FOR TREATING BACTERIAL INFECTION” (Motif BioSciences Inc., priority 2016, published 2020).

The subject of test [1] is S. pneumoniae 1/1. As to the kind of experiment: checkerboard synergy assay with iclaprim. It is filed as cell-based, Streptococcus pneumoniae. The following applies: antibiotic in combination with iclaprim. As to the method:
(§1) The synergistic potential of iclaprim against Gram-positive and Gram-negative bacteria was determined using the checkerboard assay as described in Eliopoulos GM and Moellering, Jr. RC (1991), Antimicrobial combinations, pp. 432-492, in V. Lorian (ed.), Antibiotics in laboratory medicine, 3rd Ed., The Williams & Wilkins Co., Baltimore, the entire disclosure of which is herein incorporated by reference, allowing multiple test concentrations of iclaprim to be assayed in the presence of various concentrations of the other antibiotic in microtiter plates. The same growth media and conditions were used as described in 3.2 below.
(§2) Two different dilutions were used for iclaprim depending on the MIC determined for the bacterium. […] Iclaprim and the other antibiotic being tested were also dispensed alone in the last row and in the last column, respectively, as controls.
(§3) The Fractional Inhibitory Concentrations (FIC) for each added agent were calculated and used to determine the sum of FIC (ΣFIC) indicative of the synergistic potential of a given combination as described in Veyssier P. (1999), Inhibiteurs de la dihydrofolate reductase, nitrohétérocycles (furanes) et 8-hydroxyquinoleines, pp. 995-1027, in A. Bryskier (ed.), Antibiotiques agents antibatériens et antifongiques, 1st Ed., Ellipses Edition Marketing SA, Paris, the entire disclosure of which is herein incorporated by reference. Synergy was defined whereby the ΣFIC was <0.5, indifference (no synergy nor antagonism) whereby ΣFIC was ≥0.5 but ≤4, and antagonism whereby ΣFIC was >4. Additivity as a special form of indifference was defined whereby the ΣFIC was ≥0.5 but <1, for example as described in Stevens, D L et al. (1998), In vitro antimicrobial effects of various combinations of penicillin and clindamycin against four strains of Streptococcus pyogenes, J. Antimicrob. Chemother. 42: 1266-1268, the entire disclosure of which is herein incorporated by reference.

Test [2] relates to Staphylococcus aureus ATCC 25923. As to the kind of experiment: checkerboard synergy assay with iclaprim. It is filed as cell-based. The note with it: antibiotic in combination with iclaprim; S. aureus 25923. As to the method: as §1, §2, §3
The test system of test [3] is Klebsiella pneumoniae ATCC 33495. As to the kind of experiment: checkerboard synergy assay with iclaprim. It is filed as cell-based. The following applies: antibiotic in combination with iclaprim; K. pneumoniae 33495. As to the method:
as §1, §2, §3

In test [4] the test system is Haemophilus influenzae ATCC 49766. As to the kind of experiment: checkerboard synergy assay with iclaprim. The following applies: antibiotic in combination with iclaprim; H. influenzae 49766. It is filed as cell-based. As to the method:
as §1, §2, §3

Test [5] deals with Streptococcus pneumoniae ATCC 49619. As to the kind of experiment: checkerboard synergy assay with iclaprim. It is filed as cell-based. The note with it: antibiotic in combination with iclaprim; S. pneumoniae 49619. As to the method: as §1, §2, §3
Test [6] relates to Moraxella catarrhalis RA 21. As to the kind of experiment: checkerboard synergy assay with iclaprim. It counts as cell-based. The following applies: antibiotic in combination with iclaprim; M. catarrhalis RA 21. As to the method:
as §1, §2, §3

Test [7] has as its system S. aureus 101. As to the kind of experiment: checkerboard synergy assay with iclaprim. It counts as cell-based, Staphylococcus aureus. The following applies: antibiotic in combination with iclaprim. As to the method:
as §1, §2, §3

Test [8] concerns Staphylococcus aureus ATCC 25923. As to the kind of experiment: MIC determination. The following applies: Staphylococcus aureus, ATCC25923; S. aureus 25923; 18 hours at 37° C.; read-out: Minimum inhibitory concentrations (MIC). It counts as cell-based. As to the method:
(§4) Minimum inhibitory concentration (MIC) determination.
(§5) In order to choose the appropriate concentrations to be tested in the checkerboard experiments, minimum inhibitory concentrations (MICs) were determined first. […] Table 6) in microtiter plates. Stock solutions (10 mg/ml) of reference antibiotics were prepared in DMSO (except for tobramycin, gentamicin, lomefloxacin, tetracycline) and stored at 4° C. The bacteria were grown in Mueller-Hinton Broth (BBL Mueller-Hinton Broth II, cation adjusted). S. pneumoniae was grown in Mueller-Hinton Broth supplemented with 5% (v/v) lysed sheep blood. For the growth of H. influenzae HTM (Haemophilus test medium) was used containing Mueller-Hinton broth, yeast extract ([…], Difco) and supplemented with NAD and hematin (HTM Supplement, Oxoid SR0158E). M. catarrhalis was grown in Brain Heart Infusion medium (Oxoid). The bacteria were incubated for 18 hours at 37° C. in ambient air except for S. pneumoniae, H. influenzae and M. catarrhalis, which were incubated in the presence of 5% CO2. The MIC was determined as the lowest concentration of an individual drug that lead to no visible growth.

In test [9] the test system is Klebsiella pneumoniae ATCC 33495. As to the kind of experiment: MIC determination. It counts as cell-based. The following applies: Klebsiella pneumoniae, ATCC33495; K. pneumonia 33495; 18 hours at 37° C.; read-out: Minimum inhibitory concentrations (MIC). As to the method:
as §4, §5

Test [10] concerns Haemophilus influenzae ATCC 49766. As to the kind of experiment: MIC determination. It counts as cell-based. The following applies: Haemophilus influenzae, ATCC49766; H. Influenza 49766; 18 hours at 37° C., 5% CO2; read-out: Minimum inhibitory concentrations (MIC). As to the method: as §4, §5
Test [11] deals with Streptococcus pneumoniae ATCC 49619. As to the kind of experiment: MIC determination. It counts as cell-based. The note with it: Streptococcus pneumoniae, ATCC49619; S. pneumoniae 49619; 18 hours at 37° C., 5% CO2; read-out: Minimum inhibitory concentrations (MIC). As to the method: as §4, §5
Test [12] relates to Moraxella catarrhalis RA 21. As to the kind of experiment: MIC determination. It is filed as cell-based. The following applies: Moraxella catarrhalis, RA21; M. catarrhalis RA 21; 18 hours at 37° C., 5% CO2; read-out: Minimum inhibitory concentrations (MIC). As to the method: as §4, §5
Test [13] relates to S. pneumoniae 1/1. As to the kind of experiment: MIC determination. It is filed as cell-based, Streptococcus pneumoniae. The note with it: Streptococcus pneumoniae; S. pneumoniae 1/1; 18 hours at 37° C., 5% CO2; read-out: Minimum inhibitory concentrations (MIC). As to the method: as §4, §5
Test [14] deals with S. aureus 101. As to the kind of experiment: MIC determination. It counts as cell-based, Staphylococcus aureus. The note with it: Staphylococcus aureus, 101, 18 h; read-out: Minimum inhibitory concentrations (MIC). As to the method:
as §4, §5

With `C[C@@H]1O[C@@H]1P(=O)(O)O` [Fosfomycin], the “Σ FIC” value with S. pneumoniae 1/1 [1] was 1.00-1.06; in [2], 1.13-1.50; in test [3] it was 1.01-1.50; in test [4] it was 0.74-1.12; in test [5], 1.06-1.50; in test [6] it was 1.02-1.50. In the test on S. aureus 101 [7], the “Σ FIC” value was 1.03-1.50. For the same compound, the “Con (Conclusion)” value in test [3] is “Ind (Indifference (Ind))”; in test [4], “Ad (Additivity (Ad))”; in test [6], “Ind (Indifference (Ind))”. Further, the MIC in test [8] is 8 µg/mL; in test [9], over 128 µg/mL; in test [10], 0.062 µg/mL; in [11], 32 µg/mL; in [12] it was 128 µg/mL; in the test on S. pneumoniae 1/1 [13], 32 µg/mL. The MIC with S. aureus 101 [14] worked out at 64 µg/mL.
As for `CC(=O)O[C@H]1C[C@@]2(C)[C@@H](C[C@@H](O)[C@H]3[C@@]4(C)CC[C@@H](O)[C@@H](C)[C@@H]4CC[C@@]32C)/C1=C(\CCC=C(C)C)C(=O)O` [Fusidic acid], the “Σ FIC” value was 1.06-1.50 with S. pneumoniae 1/1 [1]; 2.03-2.50 in test [2]; 1.00-1.25 in [3]; 1.06-1.50 in [4]; 1.13-1.50 in [5]; 1.00-1.00 in [6]. The “Σ FIC” value with S. aureus 101 [7] is reported as 1.06-1.50. Also, the “Con (Conclusion)” value in test [3], in [4] and in test [6] was “Ind (Indifference (Ind))” throughout. Moreover, the MIC in test [8] is 0.25 µg/mL; in [9] it was over 128 µg/mL; in test [10], 1 µg/mL; in test [11] it was 4 µg/mL; in test [12], under 0.008 µg/mL; in the test on S. pneumoniae 1/1 [13] it was 8 µg/mL. Moreover, the MIC with S. aureus 101 [14] was 0.125 µg/mL.
As to `NC[C@H]1O[C@H](O[C@H]2[C@H](O)[C@@H](O[C@H]3O[C@H](CO)[C@@H](O)[C@H](N)[C@H]3O)[C@H](N)C[C@@H]2N)[C@H](O)[C@@H](O)[C@@H]1O` [Kanamycin], the “Σ FIC” value is 1.02-1.50 with S. pneumoniae 1/1 [1]; 1.06-1.50 in test [2]; 0.63-0.75 in [3]; 1.02-1.13 in [4]; 1.00-1.25 in test [5]; 1.00-1.25 in test [6]. Also, the “Σ FIC” value in the test with S. aureus 101 [7] is recorded as 1.01-1.50. The “Con (Conclusion)” value is on record as “Ad (Additivity (Ad))” in [3], “Ind (Indifference (Ind))” in test [4] and “Ind (Indifference (Ind))” in [6]. Also, the MIC worked out at 2 µg/mL in [8]; 4 µg/mL in [9]; 2 µg/mL in test [10]; 32 µg/mL in [11]; 4 µg/mL in [12]; 128 µg/mL in the test with S. pneumoniae 1/1 [13]. The MIC with S. aureus 101 [14] was over 128 µg/mL.
With `CCn1cc(C(=O)O)c(=O)c2cc(F)c(N3CCNC(C)C3)c(F)c21` (centres unmarked) [Lomefloxacin], the “Σ FIC” value with S. pneumoniae 1/1 [1] was 0.75-1.13; in test [2], 1.06-1.50; in test [3] it was 1.13-1.50; in [4], 1.06-1.50; in [5], 0.75-1.13; in test [6], 0.63-1.13. Also, the “Σ FIC” value in the test with S. aureus 101 [7] is on record as 1.02-1.50. For the same compound, the “Con (Conclusion)” value in test [3] is “Ind (Indifference (Ind))”; in test [4] it was “Ind (Indifference (Ind))”; in test [6], “Ad (Additivity (Ad))”. Besides, the MIC in test [8] worked out at 1 µg/mL; in [9], 4 µg/mL; in test [10], 0.125 µg/mL; in test [11] it was 8 µg/mL; in test [12], 0.5 µg/mL; in the test on S. pneumoniae 1/1 [13] it was 8 µg/mL. Also, the MIC with S. aureus 101 [14] came to 128 µg/mL.
